Data: PubChem BioAssay AID256 (DTP/NCI, 2004)
Values joined by “and” are separate entries in the source; they are usually repeats but may differ in a detail not shown here. Equal entries are not always repeated. Inconclusive results and toxic doses are left out. How the source made its calls: active means survival T/C of 150% or more; inactive means T/C below 125% in these data.

Tested on: CD2F1 mice, L1210 leukemia ip, survival T/C
Experiment: NCI In Vivo Anticancer Drug Screen. Data for tumor model L1210 Leukemia (intraperitoneal) in CD2F1 (CDF1) mice
Settings: higher = longer survival
How it was run: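 Compound-dosed mice with transplantable tumor versus matched vehicle controls; endpoint ratio T/C reported.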

[1] = endpoint: mean survival time, dose: 100.0 mg/kg/injection, schedule: Q01DX009 (ip), vehicle: saline
[2] = endpoint: mean survival time, dose: 200.0 mg/kg/injection, schedule: Q01DX009 (ip), vehicle: saline
[3] = endpoint: mean survival time, dose: 50.0 mg/kg/injection, schedule: Q01DX009 (ip), vehicle: saline with Tween-80
[4] = endpoint: mean survival time, dose: 100.0 mg/kg/injection, schedule: Q01DX001 (ip), vehicle: saline with Tween-80
[5] = endpoint: mean survival time, dose: 100.0 mg/kg/injection, schedule: Q01DX009 (ip), vehicle: saline with Tween-80
[6] = endpoint: mean survival time, dose: 200.0 mg/kg/injection, schedule: Q01DX001 (ip), vehicle: saline with Tween-80
[7] = endpoint: mean survival time, dose: 200.0 mg/kg/injection, schedule: Q01DX009 (ip), vehicle: saline with Tween-80
[8] = endpoint: mean survival time, dose: 12.5 mg/kg/injection, schedule: Q01DX005 (ip), vehicle: distilled water + Tween-80
[9] = endpoint: mean survival time, dose: 25.0 mg/kg/injection, schedule: Q01DX005 (ip), vehicle: distilled water + Tween-80
[10] = endpoint: mean survival time, dose: 50.0 mg/kg/injection, schedule: Q01DX005 (ip), vehicle: distilled water + Tween-80
[11] = endpoint: mean survival time, dose: 100.0 mg/kg/injection, schedule: Q01DX005 (ip), vehicle: distilled water + Tween-80
[12] = endpoint: mean survival time, dose: 200.0 mg/kg/injection, schedule: Q01DX005 (ip), vehicle: distilled water + Tween-80
[13] = endpoint: mean survival time, dose: 100.0 mg/kg/injection, schedule: Q04DX003 (ip), vehicle: saline with Tween-80
[14] = endpoint: mean survival time, dose: 200.0 mg/kg/injection, schedule: Q04DX003 (ip), vehicle: saline with Tween-80
[15] = endpoint: mean survival time, dose: 400.0 mg/kg/injection, schedule: Q01DX009 (ip), vehicle: saline with Tween-80
[16] = endpoint: mean survival time, dose: 400.0 mg/kg/injection, schedule: Q04DX003 (ip), vehicle: saline with Tween-80
[17] = endpoint: mean survival time, dose: 100.0 mg/kg/injection, schedule: Q04DX002 (ip), vehicle: saline with Tween-80
[18] = endpoint: mean survival time, dose: 200.0 mg/kg/injection, schedule: Q04DX002 (ip), vehicle: saline with Tween-80
[19] = endpoint: median survival time, dose: 50.0 mg/kg/injection, schedule: Q04DX002 (ip), vehicle: saline with Tween-80
[20] = endpoint: median survival time, dose: 100.0 mg/kg/injection, schedule: Q04DX002 (ip), vehicle: saline with Tween-80
[21] = endpoint: median survival time, dose: 200.0 mg/kg/injection, schedule: Q04DX002 (ip), vehicle: saline with Tween-80
[22] = endpoint: mean survival time, dose: 400.0 mg/kg/injection, schedule: Q01DX001 (ip), vehicle: saline with Tween-80

Measured: T/C

CCCCCCCCCCCCCC[N+](C)(C)CC#CC[N+](C)(C)CCCCCCCCCCCCCC
inactive: endpoint: mean survival time, dose: 25.0 mg/kg/injection, schedule: Q04DX002 (ip), vehicle: saline with Tween-80 104 % of control | endpoint: mean survival time, dose: 50.0 mg/kg/injection, schedule: Q04DX002 (ip), vehicle: saline with Tween-80 89 % of control

CCCCCCCC1C(=O)OC2CC3C(C)=CC(=O)C(O)C3(C)C3C4(O)OCC23C1C(C)C4O (configuration not stated)
inactive: endpoint: median survival time, dose: 2.5 mg/kg/injection, schedule: Q01DX005 (ip), vehicle: Klucel (hydroxypropylcellulose) (HPC) 109 % of control | endpoint: median survival time, dose: 5.0 mg/kg/injection, schedule: Q01DX005 (ip), vehicle: Klucel (hydroxypropylcellulose) (HPC) 106 % of control | endpoint: median survival time, dose: 10.0 mg/kg/injection, schedule: Q01DX005 (ip), vehicle: Klucel (hydroxypropylcellulose) (HPC) 102 % of control | endpoint: median survival time, dose: 20.0 mg/kg/injection, schedule: Q01DX005 (ip), vehicle: Klucel (hydroxypropylcellulose) (HPC) 108 % of control

CCOc1ccc2c(c1)c(CC(=O)O)cn2C
inactive: endpoint: mean survival time, dose: 100.0 mg/kg/injection, schedule: Q01DX001 (ip), vehicle: other 98 % of control | endpoint: mean survival time, dose: 200.0 mg/kg/injection, schedule: Q01DX001 (ip), vehicle: other 101 % of control | endpoint: mean survival time, dose: 400.0 mg/kg/injection, schedule: Q01DX001 (ip), vehicle: other 98 % of control

O=C(O)C1(C(=O)O)CC2CC=CCC2C1 (configuration not stated)
inactive: [1] 98 % of control | [2] 100 % of control | endpoint: mean survival time, dose: 400.0 mg/kg/injection, schedule: Q01DX009 (ip), vehicle: saline 87 % of control

O=C(NC/C=C/Br)Nc1cccc2c1CCCC2
inactive: [3] 94 % of control | [4] 89 % of control | [5] 99 % of control | [6] 86 % of control | [7] 88 % of control

O=c1[nH]c(=O)n2c3c1nnn3CC1OC2C(O)C1O (configuration not stated)
inactive: endpoint: mean survival time, dose: 12.5 mg/kg/injection, schedule: Q01DX005 (ip), vehicle: water 93 % of control | endpoint: mean survival time, dose: 25.0 mg/kg/injection, schedule: Q01DX005 (ip), vehicle: water 93 % of control | endpoint: mean survival time, dose: 50.0 mg/kg/injection, schedule: Q01DX005 (ip), vehicle: water 95 % of control | endpoint: mean survival time, dose: 100.0 mg/kg/injection, schedule: Q01DX005 (ip), vehicle: water 89 % of control | endpoint: mean survival time, dose: 200.0 mg/kg/injection, schedule: Q01DX005 (ip), vehicle: water 95 % of control

NNc1nc2c(=O)[nH]cnc2n1C1OC(CO)C(O)C1O (configuration not stated)
inactive: [8] 98 % of control | [9] 98 % of control | [10] 100 % of control | [11] 107 % of control | [12] 104 % of control

CCCCOC(=O)CCCCC(=O)OCCCC
inactive: [5] 96 % of control | [13] 97 % of control | [7] 105 % of control | [14] 98 % of control | [15] 110 % of control | [16] 97 % of control

CCCCOc1ccc(Cl)cc1
inactive: [17] 90 % of control | [18] 87 % of control

CNc1c(Cl)c(Cl)c(Br)c(Cl)c1Cl
inactive: [13] 100 % of control | [14] 95 % of control | [16] 101 % of control

CCO/N=C(\C)C(N)=O
inactive: [5] 101 % of control | [7] 108 % of control | [15] 95 % of control

CC(=O)Nc1ccc2c(c1)CCCC2
inactive: [17] 101 % of control | [18] 104 % of control | endpoint: mean survival time, dose: 400.0 mg/kg/injection, schedule: Q04DX002 (ip), vehicle: saline with Tween-80 104 % of control

N#CC1CCCC[N-]1.[NH-]CC[N-]CC[NH-].[Pt+4] (configuration not stated)
inactive: endpoint: mean survival time, dose: 12.5 mg/kg/injection, schedule: Q01DX009 (ip), vehicle: water 93 % of control | endpoint: mean survival time, dose: 25.0 mg/kg/injection, schedule: Q01DX009 (ip), vehicle: water 95 % of control | endpoint: mean survival time, dose: 50.0 mg/kg/injection, schedule: Q01DX009 (ip), vehicle: water 97 % of control | endpoint: mean survival time, dose: 100.0 mg/kg/injection, schedule: Q01DX009 (ip), vehicle: water 88 % of control

O=C1c2ccccc2C(=O)c2c(O)c(Cc3ccccn3)cc(O)c21
inactive: endpoint: mean survival time, dose: 100.0 mg/kg/injection, schedule: Q01DX009 (ip), vehicle: saline sonified 96 % of control | endpoint: mean survival time, dose: 200.0 mg/kg/injection, schedule: Q01DX009 (ip), vehicle: saline sonified 94 % of control | endpoint: mean survival time, dose: 400.0 mg/kg/injection, schedule: Q01DX009 (ip), vehicle: saline sonified 98 % of control

CCC/C(=N\Nc1ccc([N+](=O)[O-])cc1[N+](=O)[O-])c1ccccc1
inactive: endpoint: mean survival time, dose: 25.0 mg/kg/injection, schedule: Q01DX009 (ip), vehicle: saline with Tween-80 94 % of control | endpoint: mean survival time, dose: 25.0 mg/kg/injection, schedule: Q04DX003 (ip), vehicle: saline with Tween-80 104 % of control | [3] 105 % of control | endpoint: mean survival time, dose: 50.0 mg/kg/injection, schedule: Q04DX003 (ip), vehicle: saline with Tween-80 115 % of control | [5] 94 % of control | [13] 98 % of control

Cc1c2ccccc2c(CSCCC(N)C(=O)O)c2ccc3ccccc3c12 (configuration not stated)
inactive: [13] 96 % of control | [14] 87 % of control

[N-]=[N+]=Nc1ccccc1C(=O)NCc1cnc(N)nc1N
inactive: [13] 95 % of control | [14] 95 % of control

COc1ccc(Nc2ncnc3c2ncn3C2OC(CO)C(O)C2O)cc1 (configuration not stated)
inactive: endpoint: mean survival time, dose: 6.25 mg/kg/injection, schedule: Q01DX005 (ip), vehicle: distilled water + Tween-80 101 % of control | [8] 102 % of control and 96 % of control | [9] 104 % of control and 96 % of control | [10] 91 % of control | [11] 102 % of control | [12] 100 % of control

COC(=O)Nc1cc2c3c(c1)CCCN3CCC2
inactive: [13] 104 % of control | [14] 93 % of control

N#[N+]c1c([O-])[nH]c2ccccc12
inactive: [19] 110 % of control | [20] 110 % of control | [21] 120 % of control

COC(=O)c1ccc(C)cc1C(=O)OC
inactive: [13] 97 % of control | [14] 92 % of control

CCOC(=O)C(CO)(NC(C)=O)C(=O)OCC
inactive: [5] 94 % of control | [7] 98 % of control | [15] 105 % of control

Cc1cc(Cl)cc([N+](=O)[O-])c1
inactive: [13] 92 % of control | [14] 88 % of control | [16] 87 % of control

O=[N+]([O-])CC(OCCO)C(Cl)(Cl)Cl (configuration not stated)
inactive: endpoint: mean survival time, dose: 6.25 mg/kg/injection, schedule: Q01DX009 (ip), vehicle: acetone 97 % of control | endpoint: mean survival time, dose: 12.5 mg/kg/injection, schedule: Q01DX009 (ip), vehicle: acetone 102 % of control | endpoint: mean survival time, dose: 12.5 mg/kg/injection, schedule: Q04DX003 (ip), vehicle: acetone 90 % of control | endpoint: mean survival time, dose: 25.0 mg/kg/injection, schedule: Q01DX009 (ip), vehicle: acetone 97 % of control | endpoint: mean survival time, dose: 25.0 mg/kg/injection, schedule: Q04DX003 (ip), vehicle: acetone 87 % of control

O=C(/C=C(/Nc1ccccc1)c1ccccc1)c1ccccc1
inactive: [4] 90 % of control | [6] 92 % of control | [22] 86 % of control

O=Cc1cccc2ccc3ccccc3c12
inactive: [19] 111 % of control | [20] 100 % of control | [21] 111 % of control

O=C(CNC(=O)Nc1ccc(F)cc1)N/N=C/c1cc(Br)ccc1O
inactive: [3] 100 % of control | [5] 96 % of control | [7] 88 % of control

CNC(=O)SCc1ccc(Cl)cc1
inactive: [13] 98 % of control | [14] 96 % of control | [16] 102 % of control

CC(=O)Oc1cc(N=[N+]=[N-])c(OC(C)=O)cc1C
inactive: [4] 97 % of control | [6] 93 % of control

CN=C1C=C(NC)C(F)(F)C1(F)F
inactive: endpoint: mean survival time, dose: 6.25 mg/kg/injection, schedule: Q04DX003 (ip), vehicle: saline 98 % of control | endpoint: mean survival time, dose: 12.5 mg/kg/injection, schedule: Q04DX003 (ip), vehicle: saline 101 % of control | endpoint: mean survival time, dose: 25.0 mg/kg/injection, schedule: Q04DX003 (ip), vehicle: saline 101 % of control

O=C1c2cc(Cl)ccc2OCC1Cl (configuration not stated)
inactive: [4] 87 % of control | [6] 91 % of control | [22] 93 % of control

NCCOC(=O)/C=C/c1ccccc1
inactive: [1] 93 % of control | [2] 97 % of control
